The values that follow come from patent US6127519A, “Calcitonin derivatives” (Tsumura & Co., priority 1990, dated 2000).

This test has as its system calcium concentration in the serum. Put plainly: Test 1: reduction of calcium level in serum after tail vein administration to rats. Format: in vivo, rats of the Wistar strain. The note with it: 1 ml/kg tail vein, female Wistar rats. The gist of the method:
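Female Wistar rats, six weeks old, were assigned in groups of 4 and given the test peptides through the tail vein at 1 ml/kg. The peptides were dissolved in 1% aqueous sodium acetate (pH 4,0) containing 0.1% BSA. Blood (0.3 ml) was drawn from the neck vein immediately before dosing and at set times afterward. Serum was separated by centrifuging at 3500 rpm for 20 minutes. Calcium was measured on a TBA-380 analyzer with a Wako o-cpc kit, and the percentage reduction in serum calcium was calculated.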

Setting [1] is: concentration 83 ng/ml, 0 hour (just before administration).
Setting [2] is: concentration 83 ng/ml, 2 hours.
Where [3] appears, read: concentration 83 ng/ml, 4 hours.
[4] abbreviates: concentration 83 ng/ml, 6 hours.
Setting [5] is: concentration 830 ng/ml, 0 hour (just before administration).
Where [6] appears, read: concentration 830 ng/ml, 1 hour.
The mark [7] stands for this setting: concentration 830 ng/ml, 2 hours.
[8] abbreviates: concentration 830 ng/ml, 4 hours.
The mark [9] stands for this setting: concentration 830 ng/ml, 6 hours.

Regarding “Peptide No. 21: novel calcitonin-derivative peptide, aminosuberic acid (carba) ring, Met8, SEQ ID NO:21 (XGNLSTAMLGKLSQELHKLQTYPQTAIGVGAP; aminosuberic acid carba ring)”, the “Serum calcium level as percent of pre-dose baseline” value (“Serum calcium level as percent” for short) amounted to 100.0% under setting [1]; 78.4% (concentration 83 ng/ml, 1 hour); 71.7% under setting [2]; 62.6% under setting [3]; 67.1% under setting [4]; 100.0% under setting [5]. The “Serum calcium level as percent” value turned out to be 78.4% under setting [6], 71.7% under setting [7], 62.6% under setting [8] and 67.1% under setting [9].
With “Peptide No. 22: novel calcitonin-derivative peptide, aminosuberic acid (carba) ring, Leu8, SEQ ID NO:22 (XGNLSTALLGKLSQELHKLQTYPQTAIGVGAP; aminosuberic acid carba ring)”, the “Serum calcium level as percent” value under setting [1] stood at 100.0%; the “Serum calcium level as percent” value (concentration 83 ng/ml, 1 hour) amounted to 76.1%; the “Serum calcium level as percent” value under setting [2] worked out at 70.7%; the “Serum calcium level as percent” value under setting [3] came out at 70.7%; the “Serum calcium level as percent” value under setting [4] is 75.9%; the “Serum calcium level as percent” value under setting [5] is listed as 100.0%. Moreover, the “Serum calcium level as percent” value runs as follows: under setting [6], 77.2%; under setting [7], 70.7%; under setting [8], 55.8%; under setting [9], 48.5%.
